According to publication PMC3710259, “Experimental detection of proteolytic activity in a signal peptide peptidase of Arabidopsis thaliana” (BMC Biochemistry, 2013):

What was measured:
native human SPP (HsSPP) = target: T1, native human SPP (HsSPP) (Homo sapiens, UniProt Q8TCT9); experiment: gel immunoblot cleavage assay of myc-Prl-PP-FLAG with DDM-solubilised membranes; type: biochemical; conditions: 1 μM myc-Prl-PP-FLAG substrate, 0.25% DDM, 37°C; 10 μM inhibitor
T1 construct: gene HM13; endogenous, untagged, in DDM-solubilised membrane fraction of HEK293T cells
T1 sequence (Q8TCT9 1-377): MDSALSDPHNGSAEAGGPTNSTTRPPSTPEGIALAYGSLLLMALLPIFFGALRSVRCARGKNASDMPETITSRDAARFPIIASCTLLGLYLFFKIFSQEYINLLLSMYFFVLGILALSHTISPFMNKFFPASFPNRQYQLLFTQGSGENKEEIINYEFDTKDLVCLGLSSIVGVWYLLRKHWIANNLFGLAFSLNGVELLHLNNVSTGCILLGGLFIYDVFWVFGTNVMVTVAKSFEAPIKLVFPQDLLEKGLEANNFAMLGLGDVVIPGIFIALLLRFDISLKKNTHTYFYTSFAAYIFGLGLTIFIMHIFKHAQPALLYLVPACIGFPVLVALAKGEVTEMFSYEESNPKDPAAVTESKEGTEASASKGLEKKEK

AtSPP-GFP = target: T2, AtSPP-GFP (Arabidopsis thaliana, UniProt O81062); experiment: as above; type: biochemical; conditions: 1 μM myc-Prl-PP-FLAG substrate, 0.25% DDM, 37°C, 15 h; 50 μM inhibitor
T2 construct: gene SPP; full length with C-terminal yEGFP-octa-His tag kept, expressed in Saccharomyces cerevisiae BY2777; DDM-solubilised yeast membranes; estimated 65 kDa
T2 sequence (O81062 1-344): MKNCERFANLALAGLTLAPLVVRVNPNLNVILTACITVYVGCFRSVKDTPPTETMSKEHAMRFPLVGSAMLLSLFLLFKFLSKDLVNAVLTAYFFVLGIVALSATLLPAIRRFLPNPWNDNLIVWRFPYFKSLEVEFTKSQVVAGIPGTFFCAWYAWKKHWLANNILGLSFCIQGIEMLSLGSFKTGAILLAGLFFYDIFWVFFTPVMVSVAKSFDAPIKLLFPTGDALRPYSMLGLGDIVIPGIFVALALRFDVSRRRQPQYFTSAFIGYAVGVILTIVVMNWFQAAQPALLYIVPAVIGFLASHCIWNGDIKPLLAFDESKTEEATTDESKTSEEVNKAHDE

Compound: CC(C)C[C@H](NC(=O)OCc1ccccc1)C(=O)N[C@@H](CC(C)C)C(=O)NCC(=O)CNC(=O)[C@H](CC(C)C)NC(=O)[C@H](CC(C)C)NC(=O)OCc1ccccc1 [(Z-LL)2-ketone, 1,3-di-(N-carboxybenzoyl-L-leucyl-L-leucyl) amino acetone]
- inhibition at 10 μM (native human SPP (HsSPP)): the SPP was inhibited by the (Z-LL)2-ketone
- inhibition at 50 μM (AtSPP-GFP): rate of proteolytic activity of AtSPP-GFP was weak, the activity was inhibited by the (Z-LL)2-ketone
